Reference: publication PMC5218480 (PLoS ONE, 2017)

Tested on: MV-4-11 cells
Test: Gene expression microarray analysis (Affymetrix PrimeView) and GSEA
Assay type: cell-based, human
Set-up: RFU PODN (11730768_x_at) / Fold change /veh PODN (11730768_x_at) / RFU LINC00158 (11744669_a_at) / Fold change /veh LINC00158 (11744669_a_at) / RFU DUSP10 (11751237_a_at) / Fold change /veh DUSP10 (11751237_a_at) / RFU ID3 (11757404_x_at) / Fold change /veh ID3 (11757404_x_at) / RFU PLEKHG5 (11737974_s_at) / Fold change /veh PLEKHG5 (11737974_s_at) / RFU LRRC4B (11730491_at) / Fold change /veh LRRC4B (11730491_at) / RFU GIMAP4 (11747438_a_at) / Fold change /veh GIMAP4 (11747438_a_at) / RFU KRT8 (11758183_x_at) / Fold change /veh KRT8 (11758183_x_at) / RFU CNN1 (11734310_a_at) / Fold change /veh CNN1 (11734310_a_at) / RFU VPS37D (11726825_at) / Fold change /veh VPS37D (11726825_at) / RFU C10orf10 (11716522_x_at) / Fold change /veh C10orf10 (11716522_x_at) / RFU KIR2DL2 /// KIR2DL4 /// KIR2DL5A /// KIR2DL5B /// KIR2DS1 /// KIR2DS2 /// KIR2DS3 /// KIR2DS4 /// KIR3DL3 /// KIR3DL3 /// KIR3DS1 (11738374_at) / Fold change /veh KIR2DL2 /// KIR2DL4 /// KIR2DL5A /// KIR2DL5B /// KIR2DS1 /// KIR2DS2 /// KIR2DS3 /// KIR2DS4 /// KIR3DL3 /// KIR3DL3 /// KIR3DS1 (11738374_at) / RFU C1QL1 (11718748_at) / Fold change /veh C1QL1 (11718748_at) / RFU TMPRSS4 (11747572_a_at) / Fold change /veh TMPRSS4 (11747572_a_at) / RFU HAMP (11756126_x_at) / Fold change /veh HAMP (11756126_x_at) / RFU RNFT2 (11725882_a_at) / Fold change /veh RNFT2 (11725882_a_at) / RFU NR4A2 (11747474_a_at) / Fold change /veh NR4A2 (11747474_a_at) / RFU ABCC12 (11746883_a_at) / Fold change /veh ABCC12 (11746883_a_at) / RFU TMEM136 (11760407_x_at) / Fold change /veh TMEM136 (11760407_x_at) / RFU CLDN22 /// WWC2 (11732394_at) / Fold change /veh CLDN22 /// WWC2 (11732394_at) / RFU HLA-DPB1 (11760878_x_at) / Fold change /veh HLA-DPB1 (11760878_x_at) / RFU SPINT1 (11716480_a_at) / Fold change /veh SPINT1 (11716480_a_at) / RFU GAP43 (11754022_s_at) / Fold change /veh GAP43 (11754022_s_at) / RFU A4GNT (11735810_at) / Fold change /veh A4GNT (11735810_at) / RFU PRB3 (11715151_x_at) / Fold change /veh PRB3 (11715151_x_at) / RFU TUBB4B (11761932_at) / Fold change /veh TUBB4B (11761932_at) / RFU CAPN14 (11732068_a_at) / Fold change /veh CAPN14 (11732068_a_at) / RFU TMCC2 (11721928_a_at) / Fold change /veh TMCC2 (11721928_a_at) / RFU IRGQ (11745062_a_at) / Fold change /veh IRGQ (11745062_a_at) / RFU FAM174B (11720279_a_at) / Fold change /veh FAM174B (11720279_a_at) / RFU TMPRSS4 (11748680_a_at) / Fold change /veh TMPRSS4 (11748680_a_at) / RFU FAM212B (11763350_a_at) / Fold change /veh FAM212B (11763350_a_at) / RFU PLEKHG5 (11743358_a_at) / Fold change /veh PLEKHG5 (11743358_a_at) / RFU ZSCAN30 (11745921_a_at) / Fold change /veh ZSCAN30 (11745921_a_at) / RFU CMKLR1 (11741424_a_at) / Fold change /veh CMKLR1 (11741424_a_at) / RFU LOC101060620 /// MAPK8IP1 (11723275_at) / Fold change /veh LOC101060620 /// MAPK8IP1 (11723275_at) / RFU SPTSSB (11747773_x_at) / Fold change /veh SPTSSB (11747773_x_at) / RFU PRSS12 (11739890_at) / Fold change /veh PRSS12 (11739890_at) / RFU BIN1 (11741810_x_at) / Fold change /veh BIN1 (11741810_x_at) / RFU WNT11 (11732464_a_at) / Fold change /veh WNT11 (11732464_a_at) / RFU C10orf10 (11716521_a_at) / Fold change /veh C10orf10 (11716521_a_at) / RFU C5orf56 (11738089_at) / Fold change /veh C5orf56 (11738089_at) / RFU CYB561 (11721691_x_at) / Fold change /veh CYB561 (11721691_x_at) / RFU ANKRD19P (11752326_a_at) / Fold change /veh ANKRD19P (11752326_a_at) / RFU OR2T12 /// OR2T33 /// OR2T8 (11738714_s_at) / Fold change /veh OR2T12 /// OR2T33 /// OR2T8 (11738714_s_at) / RFU VCAN (11748164_a_at) / Fold change /veh VCAN (11748164_a_at) / RFU JSRP1 (11732532_at) / Fold change /veh JSRP1 (11732532_at) / RFU KRTAP10-11 (11738290_x_at) / Fold change /veh KRTAP10-11 (11738290_x_at) / RFU MYO3A (11730013_a_at) / Fold change /veh MYO3A (11730013_a_at) / RFU EBF3 (11725865_a_at) / Fold change /veh EBF3 (11725865_a_at) / RFU CAMK2N1 (11719241_x_at) / Fold change /veh CAMK2N1 (11719241_x_at) / RFU C5orf56 (11738088_a_at) / Fold change /veh C5orf56 (11738088_a_at) / RFU OLFML3 (11715873_a_at) / Fold change /veh OLFML3 (11715873_a_at) / RFU LOC100653217 /// NTM (11731650_a_at) / Fold change /veh LOC100653217 /// NTM (11731650_a_at) / RFU MAPK11 (11762145_a_at) / Fold change /veh MAPK11 (11762145_a_at) / RFU FIZ1 (11724087_x_at) / Fold change /veh FIZ1 (11724087_x_at) / RFU OASL (11726364_x_at) / Fold change /veh OASL (11726364_x_at) / RFU SOX15 (11748057_x_at) / Fold change /veh SOX15 (11748057_x_at) / RFU CD79A (11719716_a_at) / Fold change /veh CD79A (11719716_a_at) / RFU HIST1H1D (11736915_at) / Fold change /veh HIST1H1D (11736915_at) / RFU CASKIN2 (11723855_a_at) / Fold change /veh CASKIN2 (11723855_a_at) / RFU LOC730098 (11760151_x_at) / Fold change /veh LOC730098 (11760151_x_at) / RFU OR4N2 (11742367_at) / Fold change /veh OR4N2 (11742367_at) / RFU PRRT2 (11749266_a_at) / Fold change /veh PRRT2 (11749266_a_at) / RFU SNX32 (11753110_a_at) / Fold change /veh SNX32 (11753110_a_at) / RFU CDHR5 (11726645_a_at) / Fold change /veh CDHR5 (11726645_a_at) / RFU RCAN1 (11760418_a_at) / Fold change /veh RCAN1 (11760418_a_at) / RFU FAM167A (11723789_a_at) / Fold change /veh FAM167A (11723789_a_at) / RFU FAM26E (11764081_at) / Fold change /veh FAM26E (11764081_at) / RFU ISYNA1 (11749810_s_at) / Fold change /veh ISYNA1 (11749810_s_at) / RFU ACY1 (11761880_at) / Fold change /veh ACY1 (11761880_at) / RFU 11764098_at / Fold change /veh 11764098_at / RFU SAMD14 (11745864_x_at) / Fold change /veh SAMD14 (11745864_x_at) / RFU NPB (11741838_a_at) / Fold change /veh NPB (11741838_a_at) / RFU TMPRSS6 (11731388_a_at) / Fold change /veh TMPRSS6 (11731388_a_at) / RFU KRTAP10-2 (11738614_at) / Fold change /veh KRTAP10-2 (11738614_at) / RFU ARHGAP8 /// PRR5-ARHGAP8 (11727945_x_at) / Fold change /veh ARHGAP8 /// PRR5-ARHGAP8 (11727945_x_at) / RFU KRTAP5-7 /// NADSYN1 (11734609_at) / Fold change /veh KRTAP5-7 /// NADSYN1 (11734609_at) / RFU RASL12 (11751679_a_at) / Fold change /veh RASL12 (11751679_a_at) / RFU CDKN2B (11736163_a_at) / Fold change /veh CDKN2B (11736163_a_at) / RFU PRF1 (11729649_at) / Fold change /veh PRF1 (11729649_at) / RFU, ZNF638 /// ZNF638-IT1 / Fold change vs veh, ZNF638 /// ZNF638-IT1 / RFU, PANK3 / Fold change vs veh, PANK3 / RFU, SH3YL1 / Fold change vs veh, SH3YL1 / RFU, ZEB2 / Fold change vs veh, ZEB2 / RFU, NRIP1 / Fold change vs veh, NRIP1 / RFU, PTTG1IP / Fold change vs veh, PTTG1IP / RFU, CAPN2 / Fold change vs veh, CAPN2 / RFU, MED14 / Fold change vs veh, MED14 / RFU, SNORA58 / Fold change vs veh, SNORA58 / RFU, C1orf63 / Fold change vs veh, C1orf63 / RFU, LRRFIP1 / Fold change vs veh, LRRFIP1 / RFU, NDUFAF7 / Fold change vs veh, NDUFAF7 / RFU, SLC12A2 / Fold change vs veh, SLC12A2 / RFU, IBTK / Fold change vs veh, IBTK / RFU, ESF1 / Fold change vs veh, ESF1 / Fold change vs veh, TMEM50B / RFU, TAOK1 / Fold change vs veh, TAOK1 / RFU, ACBD3 / Fold change vs veh, ACBD3 / RFU, TMA16 / Fold change vs veh, TMA16 / RFU, RWDD3 / Fold change vs veh, RWDD3 / RFU, BCAT1 / Fold change vs veh, BCAT1 / RFU, EDEM3 / Fold change vs veh, EDEM3 / RFU, TMEM33 / Fold change vs veh, TMEM33 / RFU, WDR75 / Fold change vs veh, WDR75 / RFU, AHCTF1 / Fold change vs veh, AHCTF1 / RFU, TFRC / Fold change vs veh, TFRC / RFU, ZDHHC17 / Fold change vs veh, ZDHHC17 / RFU, NOM1 / Fold change vs veh, NOM1 / RFU, ARL8B / Fold change vs veh, ARL8B / RFU, ZBTB11 / Fold change vs veh, ZBTB11 / RFU, TAMM41 / Fold change vs veh, TAMM41 / RFU, KIAA1704 /// LOC100996395 / Fold change vs veh, KIAA1704 /// LOC100996395 / RFU, ING1 / Fold change vs veh, ING1 / RFU, TRMT61B / Fold change vs veh, TRMT61B / RFU, FUBP3 / Fold change vs veh, FUBP3 / RFU, TP53 / Fold change vs veh, TP53 / RFU, TNKS2 / Fold change vs veh, TNKS2 / RFU, ZFP14 / Fold change vs veh, ZFP14 / RFU, ACTR2 / Fold change vs veh, ACTR2 / RFU, PPP3R1 / Fold change vs veh, PPP3R1 / RFU, PIK3R1 / Fold change vs veh, PIK3R1 / RFU, HNRNPA1 / Fold change vs veh, HNRNPA1 / RFU, RNF170 / Fold change vs veh, RNF170 / RFU, ZNF28 / Fold change vs veh, ZNF28 / RFU, RNGTT / Fold change vs veh, RNGTT / RFU, OGT / Fold change vs veh, OGT / RFU, BRD1 / Fold change vs veh, BRD1 / RFU, MARS / Fold change vs veh, MARS / RFU, ZNF655 / Fold change vs veh, ZNF655 / RFU, FAHD1 / Fold change vs veh, FAHD1 / RFU, BDP1 / Fold change vs veh, BDP1 / RFU, LRRCC1 / Fold change vs veh, LRRCC1 / RFU, ARID1A / Fold change vs veh, ARID1A / RFU, ZNF146 / Fold change vs veh, ZNF146 / RFU, ZNF330 / Fold change vs veh, ZNF330 / RFU, GPN3 / Fold change vs veh, GPN3 / RFU, C9orf123 / Fold change vs veh, C9orf123 / RFU, N4BP2L2 / Fold change vs veh, N4BP2L2 / RFU, ARFIP1 / Fold change vs veh, ARFIP1 / RFU, FAM179B / Fold change vs veh, FAM179B / RFU, BCL10 / Fold change vs veh, BCL10 / RFU, UHRF1BP1L / Fold change vs veh, UHRF1BP1L / RFU, BET1 / Fold change vs veh, BET1 / RFU, CNOT2 / Fold change vs veh, CNOT2 / RFU, ZNF268 / Fold change vs veh, ZNF268 / Fold change vs veh, ZNF507 / RFU, DGCR2 / Fold change vs veh, DGCR2 / RFU, WDSUB1 / Fold change vs veh, WDSUB1 / Fold change vs veh, HSP90B1 /// MIR3652 / RFU, ADSS / Fold change vs veh, ADSS / RFU, GK / Fold change vs veh, GK / RFU, ZNF148 / Fold change vs veh, ZNF148 / RFU, TAF9 / Fold change vs veh, TAF9 / RFU, SLC1A5 / Fold change vs veh, SLC1A5 / RFU, SLMO2 / Fold change vs veh, SLMO2 / RFU, ABCC4 / Fold change vs veh, ABCC4 / RFU, LOC101060439 /// RAP1B / Fold change vs veh, LOC101060439 /// RAP1B / RFU, RFX7 / Fold change vs veh, RFX7 / RFU, GTPBP10 / Fold change vs veh, GTPBP10 / RFU, CNEP1R1 / Fold change vs veh, CNEP1R1 / RFU, BIVM-ERCC5 /// ERCC5 / Fold change vs veh, BIVM-ERCC5 /// ERCC5 / RFU, ILF3 / Fold change vs veh, ILF3 / RFU 11762660_at / Fold change /veh 11762660_at / RFU VCAN (11757783_s_at) / Fold change /veh VCAN (11757783_s_at) / RFU DDX43 (11728927_at) / Fold change /veh DDX43 (11728927_at) / RFU KRT8 (11758188_x_at) / Fold change /veh KRT8 (11758188_x_at) / RFU NKD1 (11759106_at) / Fold change /veh NKD1 (11759106_at) / RFU SRD5A1 (11742802_a_at) / Fold change /veh SRD5A1 (11742802_a_at) / RFU TPSAB1 /// TPSB2 (11721975_s_at) / Fold change /veh TPSAB1 /// TPSB2 (11721975_s_at) / RFU GSTM3 (11746129_a_at) / Fold change /veh GSTM3 (11746129_a_at) / RFU IL23R (11737362_x_at) / Fold change /veh IL23R (11737362_x_at) / RFU TMEM51 (11727254_a_at) / Fold change /veh TMEM51 (11727254_a_at) / RFU PIWIL2 (11732686_x_at) / Fold change /veh PIWIL2 (11732686_x_at) / RFU ORM1 (11744905_x_at) / Fold change /veh ORM1 (11744905_x_at) / RFU CCDC152 (11743942_at) / Fold change /veh CCDC152 (11743942_at) / RFU ECM1 (11717891_a_at) / Fold change /veh ECM1 (11717891_a_at) / RFU IL23R (11748794_a_at) / Fold change /veh IL23R (11748794_a_at) / RFU TNFAIP8L3 (11732012_x_at) / Fold change /veh TNFAIP8L3 (11732012_x_at) / RFU MBOAT4 (11741988_at) / Fold change /veh MBOAT4 (11741988_at) / RFU 11764193_at / Fold change /veh 11764193_at / RFU TMEM53 (11763286_at) / Fold change /veh TMEM53 (11763286_at) / RFU MAGEB2 (11727129_at) / Fold change /veh MAGEB2 (11727129_at) / RFU TMEM200A (11744735_a_at) / Fold change /veh TMEM200A (11744735_a_at) / RFU CCDC152 (11751479_a_at) / Fold change /veh CCDC152 (11751479_a_at) / RFU FAM211A (11726209_a_at) / Fold change /veh FAM211A (11726209_a_at) / RFU RGS16 (11746705_a_at) / Fold change /veh RGS16 (11746705_a_at) / RFU VCAN (11755009_s_at) / Fold change /veh VCAN (11755009_s_at) / RFU RHOB (11743442_s_at) / Fold change /veh RHOB (11743442_s_at) / RFU RGS16 (11720943_a_at) / Fold change /veh RGS16 (11720943_a_at) / RFU RGS16 (11720944_at) / Fold change /veh RGS16 (11720944_at) / RFU, VPS4B / Fold change vs veh, VPS4B / RFU, CREB1 / Fold change vs veh, CREB1 / RFU, DNAJC13 / Fold change vs veh, DNAJC13 / RFU, GNAQ / Fold change vs veh, GNAQ / RFU, CDK5R1 / Fold change vs veh, CDK5R1 / RFU, ZRANB3 / Fold change vs veh, ZRANB3 / RFU, CUL4A / Fold change vs veh, CUL4A / RFU, CCNY / Fold change vs veh, CCNY / RFU, UFL1 / Fold change vs veh, UFL1 / RFU, COG3 / Fold change vs veh, COG3 / RFU, DIAPH2 / Fold change vs veh, DIAPH2 / RFU, SKA2 / Fold change vs veh, SKA2 / RFU, AFF3 / Fold change vs veh, AFF3 / RFU, LMF1 / Fold change vs veh, LMF1 / RFU, IPO11 / Fold change vs veh, IPO11 / RFU, DFFB / Fold change vs veh, DFFB / RFU, FOXP1 / Fold change vs veh, FOXP1 / RFU, CARD8 / Fold change vs veh, CARD8 / RFU, STRN3 / Fold change vs veh, STRN3 / RFU, ADK / Fold change vs veh, ADK / RFU, RASSF2 / Fold change vs veh, RASSF2 / RFU, WIPF1 / Fold change vs veh, WIPF1 / RFU, LARP1B / Fold change vs veh, LARP1B / RFU, RASA1 / Fold change vs veh, RASA1 / RFU, RB1 / Fold change vs veh, RB1 / RFU, PPFIA1 / Fold change vs veh, PPFIA1 / RFU, MAT2A / Fold change vs veh, MAT2A / RFU, CCT5 / Fold change vs veh, CCT5 / RFU, WDR92 / Fold change vs veh, WDR92 / RFU, CUX1 / Fold change vs veh, CUX1 / RFU, TTC7A / Fold change vs veh, TTC7A / RFU, TMEM135 / Fold change vs veh, TMEM135 / RFU, DEPTOR / Fold change vs veh, DEPTOR / RFU, CPM / Fold change vs veh, CPM / RFU, DNAJB6 / Fold change vs veh, DNAJB6 / RFU, CACNA2D3 / Fold change vs veh, CACNA2D3 / RFU, DTX4 / Fold change vs veh, DTX4 / RFU, TFCP2 / Fold change vs veh, TFCP2 / RFU, GMCL1 /// GMCL1P1 / Fold change vs veh, GMCL1 /// GMCL1P1 / RFU, AEBP2 / Fold change vs veh, AEBP2 / RFU, SNHG1 /// SNORD22 /// SNORD25 /// SNORD26 /// SNORD27 /// SNORD28 /// SNORD29 /// SNORD31 / Fold change vs veh, SNHG1 /// SNORD22 /// SNORD25 /// SNORD26 /// SNORD27 /// SNORD28 /// SNORD29 /// SNORD31 / Fold change (Aza/veh), C12orf56 (ProbeSet 11735607_a_at) / Fold change (ACY-1035/veh), C12orf56 (ProbeSet 11735607_a_at) / Fold change (Aza/veh), FGFR1OP (ProbeSet 11751329_s_at) / Fold change (ACY-1035/veh), FGFR1OP (ProbeSet 11751329_s_at) / Fold change (Aza/veh), VPS36 (ProbeSet 11739960_a_at) / Fold change (ACY-1035/veh), VPS36 (ProbeSet 11739960_a_at) / RFU SYPL1 (11715823_x_at) / Fold change /veh SYPL1 (11715823_x_at) / RFU IGFBP7 (11715501_s_at) / Fold change /veh IGFBP7 (11715501_s_at) / RFU REEP3 (11722064_at) / Fold change /veh REEP3 (11722064_at) / RFU IGLL1 (11728026_x_at) / Fold change /veh IGLL1 (11728026_x_at): dose or concentration left out as unconfirmed
Conditions: ProbeSet 11749645_x_at; LIST B

Nc1ncn([C@@H]2O[C@H](CO)[C@@H](O)[C@H]2O)c(=O)n1 [azacitidine]
Fold change vs veh, ZNF268: 0.97
